Values joined by “and” are separate entries in the source; they are usually repeats but may differ in a detail not shown here. Identical values can stand only once. Like-named read-outs stand apart in the source and are kept apart here.
Tests used:
FFA1 = FFA1 (Homo sapiens, UniProt O14842); assay: Ca2+ mobilisation (Fura2) in Flp-In T-REx 293 cells expressing Nluc-FFA1, FFA1-Nluc or untagged FFA1; assay type: cell-based; parameters: expressed in transfected cells
Summary of the method: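 520 nm emission read at 340 and 380 nm excitation over 90 s spanning compound addition. Response taken as peak 340/380 ratio after subtracting pre-addition ratios.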

FFA1-Nluc [1] = target: T1, FFA1-Nluc (Homo sapiens, UniProt O14842); assay: DISCo-BRET (endpoint, spectra scan, kinetics) with TUG-2591 and TUG-2597 at C terminal Nluc tagged FFA1; assay type: binding; parameters: expressed in transfected cells; conditions: for Specific BRET (690/450): Sup Fig 3Bi
T1 sequence (O14842 whole entry): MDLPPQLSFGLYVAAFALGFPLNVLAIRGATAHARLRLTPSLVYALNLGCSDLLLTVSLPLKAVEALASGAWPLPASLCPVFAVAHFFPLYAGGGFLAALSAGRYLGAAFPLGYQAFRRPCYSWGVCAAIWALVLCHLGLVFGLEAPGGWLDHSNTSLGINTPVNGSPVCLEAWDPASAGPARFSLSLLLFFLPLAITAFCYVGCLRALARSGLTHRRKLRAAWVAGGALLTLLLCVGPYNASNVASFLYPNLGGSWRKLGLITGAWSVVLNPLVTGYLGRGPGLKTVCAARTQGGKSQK
Summary of the method: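 After Nano-Glo substrate (1:800 final), ligand-treated FFA1-Nluc or Nluc-FFA1 cells, doxycycline-induced (100 ng/mL), were read. Kinetic association/dissociation runs were at 25 °C; endpoint and 440–740 nm spectra came after 5 min at 37 °C. Non-specific signal came from competing ligands at high concentration.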

FFA1-Nluc [2] = target: T1, FFA1-Nluc; assay: Bystander BRET internalisation assay, FFA1-Nluc in HEK293T cells; assay type: cell-based; parameters: expressed in transfected cells; host or cells: HEK293T (ATCC, CRL-3216), transient; conditions: in words; up to 60 min
Method: Cells were transfected using a reverse transfection protocol while plating into a poly-D-lysine coated white 96-well plates. Cells were plated at 60,000 cells with 100 ng of plasmid DNA and 0.6 µg of polyethyleneimine (PEI) per well. Cells were cultured for 24 h before washing with HBSS and incubating in HBSS at 37 °C for 30 min. NanoGlo substrate was added a final 1:800 dilution and plates incubated for 10 min at 37 °C. […] After 5 min of baseline measurements, readings were paused and test compounds added to the plate.

[3] = TUG-2597 […] first, then increasing TUG-2591 (Fig. 6H)

FFA1, sequence (O14842 whole entry): as above

Cc1cc(OCCCNC(=O)CCCN2\C(=C/C=C/C=C/C3=[N+](C)c4ccc(S(=O)(=O)[O-])cc4C3(C)C)C(C)(C)c3ccccc32)ccc1-c1cccc(COc2ccc(CCC(=O)O)c(F)c2)c1 [TUG-2591]
pEC50 (FFA1; Ca2+ data, mean±SEM, NR = No response): 6.47±0.16 | Ca2+ Response as a % of T360 Response (FFA1; FFA1-Nluc cells, log[ligand] -6.5, technical replicates): 55.49% and 52.86% and 28.95% and 51.39% and 72.16% and 71.58% and 70.75% and 43.70% and 49.38% | Ca2+ Response as a % of T360 Response (FFA1; FFA1-Nluc cells, log[ligand] -7, technical replicates): 8.16% | Ca2+ Response as a % of T360 Response (FFA1; Nluc-FFA1 cells, log[ligand] -6.5, technical replicates): 34.81% and 37.98% and 35.96% and 31.33% and 37.74% and 35.87% and 21.49% and 18.21% and 19.57% | Ca2+ Response as a % of T360 Response (FFA1; Nluc-FFA1 cells, log[ligand] -7, technical replicates): 17.82% and 28.31% and 29.67% and 8.27% and 1.38% and 7.74% and -0.10% and 0.12% | Ca2+ Response as a % of T360 Response (FFA1; log[Ligand] -5, single technical replicates): 61.66% and 51.52% and 46.84% and 86.56% and 82.15% and 71.83% and 71.15% and 53.72% | Ca2+ Response as a % of T360 Response (FFA1; log[Ligand] -5.5, single technical replicates): 62.71% and 47.16% and 58.62% and 85.53% and 80.90% and 77.51% and 55.09% and 51.22% | Ca2+ Response as a % of T360 Response (FFA1; log[Ligand] -6, single technical replicates): 62.82% and 60.50% and 58.53% and 87.03% and 71.98% and 71.50% and 53.51% and 60.26% and 56.70% | Ca2+ Response as a % of T360 Response (FFA1; log[Ligand] -6.5, single technical replicates): 34.81% and 37.98% and 35.96% and 31.33% and 37.74% and 35.87% and 21.49% and 18.21% and 19.57% | Ca2+ Response as a % of T360 Response (FFA1; log[Ligand] -7, single technical replicates): 17.82% and 28.31% and 29.67% and 8.27% and 1.38% and 7.74% and -0.10% and 0.12% and -1.53% | Ca2+ Response as a % of T360 Response (FFA1; log[Ligand] -8, single technical replicates): 10.54% and 11.17% and 19.68% and 8.20% and 7.07% and 9.22% and 0.11% and 1.85% and 0.30% | Ca2+ Response as a % of T360 Response (FFA1; log[Ligand] -9, single technical replicates): 1.04% and 5.22% and 4.78% and 4.50% and 4.79% and 3.13% and 2.97% and -0.0331% and -1.56% | EMax (FFA1; percentage of response to 10 μM T360, NR = No response): 73±9% | Ca2+ Response as a % of T360 Response (FFA1; untagged FFA1 cells, log[ligand] -6.5, technical replicates): 69.40% and 67.64% and 73.36% and 82.87% and 85.96% and 73.97% and 51.16% and 43.14% and 56.15% and 83.71% and 86.53% and 111.93% | Specific BRET (540/450) (FFA1-Nluc [1]; 10 nM TUG-2591, + TUG-2597): 0.2063 and 0.1967 and 0.1514 and 0.1434 and 0.1849 and 0.1798 | Kd (FFA1-Nluc [1]; FFA1-Nluc, […] TUG-2597, read-out: Kd, DISCo-BRET saturation SulfoCy5/NBD (Sup Fig 3Biii)): 64 nM | Kd (FFA1-Nluc [1]; FFA1-Nluc, […] TUG-2597, read-out: Kd, DISCo-BRET saturation SulfoCy5/NBD (Sup Fig 3Ciii)): 140 nM | Kd (FFA1-Nluc [1]; FFA1-Nluc, […] TUG-2597, read-out: Kd, DISCo-BRET saturation SulfoCy5/Nluc (Sup Fig 3Bi)): 57 nM | Kd (FFA1-Nluc [1]; FFA1-Nluc, […] TUG-2597, read-out: Kd, DISCo-BRET saturation SulfoCy5/Nluc (Sup Fig 3Ci)): 81 nM | Specific BRET (690/450) (FFA1-Nluc [1]; TUG-2591 56 nM, with TUG-2597): 0.0527 and 0.0499 and 0.0741 and 0.0890 and 0.0785 and 0.0761 and 0.0666 and 0.0608 | Specific BRET (690/450) (FFA1-Nluc [1]; TUG-2591 100 nM, with TUG-2597): 0.0715 and 0.0673 and 0.0821 and 0.0713 and 0.0718 and 0.0721 and 0.1131 and 0.1106 | Specific BRET (540/450) (FFA1-Nluc [1]; Sup Fig 3Bii, TUG-2591 10 nM, with TUG-2597 + TUG-905): 0.2427 and 0.2316 and 0.2211 and 0.2363 and 0.1842 and 0.1961 | Specific BRET (540/450) (FFA1-Nluc [1]; Sup Fig 3Bii, TUG-2591 56 nM, with TUG-2597): 0.1505 and 0.1512 and 0.1284 and 0.1402 and 0.0985 and 0.0926 | Specific BRET (540/450) (FFA1-Nluc [1]; Sup Fig 3Bii, TUG-2591 56 nM, with TUG-2597 + TUG-905): 0.1690 and 0.2045 and 0.2352 and 0.2122 and 0.1905 and 0.1776 | Specific BRET (540/450) (FFA1-Nluc [1]; Sup Fig 3Bii, TUG-2591 100 nM, with TUG-2597): 0.1528 and 0.1591 and 0.1221 and 0.0973 and 0.0962 and 0.0870 | Specific BRET (540/450) (FFA1-Nluc [1]; Sup Fig 3Bii, TUG-2591 100 nM, with TUG-2597 + TUG-905): 0.1931 and 0.1764 and 0.2349 and 0.2150 and 0.1675 and 0.1714 | Specific BRET (690/540) (FFA1-Nluc [1]; Sup Fig 3Biii, TUG-2591 56 nM, with TUG-2597): 0.0349 and 0.0333 and 0.0476 and 0.0572 and 0.0548 and 0.0534 and 0.0437 and 0.0392 | Specific BRET (690/540) (FFA1-Nluc [1]; Sup Fig 3Biii, TUG-2591 100 nM, with TUG-2597): 0.0480 and 0.0458 and 0.0524 and 0.0450 and 0.0542 and 0.0749 and 0.0751 | kOff DISCo-BRET SulfoCy5/NBD (FFA1-Nluc [1]; TUG-2591 100 nM + TUG-2597 […], displacing ligand TUG-905 10 μM): 0.0006 s⁻¹ | kOn DISCo-BRET Single Concentration (FFA1-Nluc [1]; TUG-2591 100 nM added after TUG-2597 […]): 20000 M⁻¹ s⁻¹ | Kd (FFA1-Nluc [1]; TUG-2591 added after TUG-2597, read-out: Kd DISCo-BRET Single Concentration (kinetic)): 91 nM | kOff DISCo-BRET Multiple Concentration (FFA1-Nluc [1]; [3]): 0.00183 s⁻¹ | kOn DISCo-BRET Multiple Concentration (FFA1-Nluc [1]; [3]): 8333.33 M⁻¹ s⁻¹ | Kd (FFA1-Nluc [1]; TUG-2597 […] first, then increasing TUG-2591 (Fig. 6H), read-out: Kd DISCo-BRET Multiple Concentration (kinetic)): 220 nM | Specific BRET (690/540) (FFA1-Nluc [1]; [TUG-2591] 100 nM, with TUG-2597): 0.0559 and 0.0537 and 0.05545 and 0.05225 and 0.03465 and 0.04165 | kOff DISCo-BRET Single Concentration (FFA1-Nluc [1]; based on the value calculated in the multiple ligand experiment in Fig. 6H): 0.00183 s⁻¹ | Kd (FFA1-Nluc [1]; in presence of […] TUG-2597, either construct, read-out: Kd, DISCo-BRET saturation (area under SulfoCy5 / NBD peaks)): 50 to 100 nM | kOff DISCo-BRET SulfoCy5/NBD (FFA1-Nluc [1]; tracers 1.0 μΜ / 3.16 μΜ, displacing ligand TUG-905 (30 μΜ)): 0.000533 s⁻¹ | internalization of FFA1-Nluc (FFA1-Nluc [2]): No internalization

— publication PMC12254266, “Multicolored sequential resonance energy transfer for detection of simultaneous ligand binding at G protein-coupled receptors” (Nature Communications, 2025)
